Experimental data from patent US9193669B2, “Compounds for treating ophthalmic diseases and disorders” (Acucela Inc., priority 2008, dated 2015).

What follows are compounds tested against T1, isomerase (Mus musculus, UniProt Q91ZQ5) (assay: In vivo murine isomerase assay). Conditions: mouse, po, 4 h; read-out: % Inibition 1 mg/kg, 4 h.
T1 construct: The recovery of 11-cis-retinal after bleaching can be used to estimate the activity of isomerase in vivo; from tissue; host or cells: eyes of living mice (CD-1; Balb/c also named)
T1 sequence (Q91ZQ5 1-533): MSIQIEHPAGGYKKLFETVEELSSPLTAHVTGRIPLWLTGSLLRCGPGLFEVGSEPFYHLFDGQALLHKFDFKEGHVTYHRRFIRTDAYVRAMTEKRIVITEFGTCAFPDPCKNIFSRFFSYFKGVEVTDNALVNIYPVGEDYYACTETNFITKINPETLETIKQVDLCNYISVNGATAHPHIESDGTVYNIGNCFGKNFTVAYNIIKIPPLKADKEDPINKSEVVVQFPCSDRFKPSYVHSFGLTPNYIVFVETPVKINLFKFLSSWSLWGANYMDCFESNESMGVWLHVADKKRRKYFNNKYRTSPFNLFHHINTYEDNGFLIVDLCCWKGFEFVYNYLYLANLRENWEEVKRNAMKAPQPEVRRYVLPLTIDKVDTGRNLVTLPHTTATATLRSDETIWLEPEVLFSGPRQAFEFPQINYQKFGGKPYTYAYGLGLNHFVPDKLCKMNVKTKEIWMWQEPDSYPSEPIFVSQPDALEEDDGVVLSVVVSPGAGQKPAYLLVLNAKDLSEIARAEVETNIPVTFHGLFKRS
Parameters: species or system mice
Method: The capability of compounds described herein to inhibit isomerase was determined by an in vivo murine isomerase assay. Brief exposure of the eye to intense light (“photobleaching” of the visual pigment or simply “bleaching”) is known to photo-isomerize almost all 11-cis-retinal in the retina. The recovery of 11-cis-retinal after bleaching can be used to estimate the activity of isomerase in vivo. Delayed recovery, as represented by lower 11-cis-retinal oxime levels, indicates inhibition of isomerization reaction. Procedures were performed essentially as described by Golczak et al., Proc. Natl. Acad. Sci. […] Mice were gavaged with the compounds described in the present disclosure. After about 2-24 hours in the dark, the mice were exposed to photobleaching of about 5,000 lux of white light for 10 minutes. The mice were allowed to recover for about 2 hours in the dark. The animals were then sacrificed by carbon dioxide inhalation. Retinoids were extracted from the eye and the regeneration of 11-cis-retinal was assessed at various time intervals. […] After the mice were sacrificed, the eyes were immediately removed and placed in liquid nitrogen for storage. The eyes were placed in about 500 μL of bis-tris propane buffer (10 mM, pH˜7.3) and about 20 μl of 0.8M hydroxylamine (pH˜7.3). The eyes were cut up into small pieces with small iris scissors and then thoroughly homogenized at 30000 rpm with a mechanical homogenizer (Polytron PT 1300 D) in the tube until no visible tissue remains. About 500 μL of methanol and about 500 μL of heptane was added to each tube. The tubes were attached to a vortexer so that the contents are mixed thoroughly for about 15 minutes in room temperature. […] The samples were analyzed on an Agilent 1100 HPLC system with normal phase column: SILICA (Beckman Coutlier, dp 5 μm, […]). […] Loading volume for each sample was about 100 μl; detection wavelength is 360 nm. The area under the curve for 11-cis-retinal oxime was calculated by Agilent Chemstation software and recorded manually. Data processing was performed using Prizm software. Positive control mice (no compound administered) were sacrificed fully dark-adapted and the eye retinoids analyzed. Light (bleached) control mice (no compound administered) were sacrificed and retinoids isolated and analyzed immediately after light treatment. A time course study was also performed to determine the isomerase inhibitory activity of compounds of the present disclosure. Female or male mice (such as Balb/c mice) (at least 4/group) received 0 to about 5 mg of compounds (in water) per kg bodyweight orally, by gavage. The animals were then “photo-bleached” (about 5000 Lux white light for about 10 minutes) at about 2, 4, 8, 16 and 24 hours after dosing, and returned to darkness to allow recovery of the 11-cis-retinal content of the eyes. Mice were sacrificed about 2 hours after bleaching, eyes were enucleated, and retinoid content was analyzed by HPLC. A dose response in vivo isomerase inhibition study is performed with compounds of the present disclosure. Male or female mice (such as Balb/c mice)(at least about 8/group) are dosed orally with about 0.01 to 25 mg/kg of the compounds of HCl salts of the compounds in sterile water as solution, and photobleached about 4 hours after dosing. Recovery and retinoid analysis is performed as described above. Dark control mice are vehicle-only treated, sacrificed fully dark adapted without light treatment, and analyzed. […]
Compound NCCC(O)c1cccc(NCC2CCCCC2)c1 (stereo not drawn) [Example 11, 3-amino-1-(3-(cyclohexylmethylamino)phenyl)propan-1-ol] has an inhibition in vivo at 1 mg/kg of 95.3 ± 2.7%. Work on NCCC(=O)c1cccc(NCC2CCCCC2)c1 [Example 12, 3-amino-1-(3-(cyclohexylmethylamino)phenyl)propan-1-one] yielded an inhibition in vivo at 1 mg/kg of 9.16 ± 9.41%. CCCCCNc1cccc(C(O)CCN)c1 (stereo not drawn) [Example 13, 3-amino-1-(3-(pentylamino)phenyl)propan-1-ol] showed an inhibition in vivo at 1 mg/kg of 1.98 ± 6.02%. With CCCCCNc1cccc(C(=O)CCN)c1 [Example 14, 3-amino-1-(3-(pentylamino)phenyl)propan-1-one] the inhibition in vivo at 1 mg/kg was 8.12 ± 16.2%. NCCC(O)c1cccc(NC(=O)C2CCCCC2)c1 (stereo not drawn) [Example 15, N-(3-(3-amino-1-hydroxypropyl)phenyl)cyclohexanecarboxamide] showed an inhibition in vivo at 1 mg/kg of -0.003 ± 19.4%. With NCCC(=O)c1cccc(NC(=O)C2CCCCC2)c1 [Example 16, N-(3-(3-aminopropanoyl)phenyl)cyclohexanecarboxamide] the inhibition in vivo at 1 mg/kg was 17.1 ± 5.32%. For NCCCc1cccc(NCC2CCCC2)c1 [Example 31, 3-(3-aminopropyl)-N-(cyclopentylmethyl)aniline], the inhibition in vivo at 1 mg/kg was 9.52 ± 4.6%. For CCC(CC)CNc1cccc(CCCN)c1 [Example 33, 3-(3-aminopropyl)-N-(2-ethylbutyl)aniline], the inhibition in vivo at 1 mg/kg was 4.32 ± 7.88%. With CCC(CC)CNc1cccc(C(O)CCN)c1 (stereo not drawn) [Example 35, 3-amino-1-(3-(2-ethylbutylamino)phenyl)propan-1-ol] the inhibition in vivo at 1 mg/kg was 95.2 ± 1.41%. With CCC(CC)CNc1cccc(C(=O)CCN)c1 [Example 36, 3-Amino-1-(3-(2-ethylbutylamino)phenyl)propan-1-one] the inhibition in vivo at 1 mg/kg was -1.4 ± 2.78%. CCCC(CCC)CNc1cccc(C(O)CCN)c1 (stereo not drawn) [Example 37, 3-Amino-1-(3-(2-propylpentylamino)phenyl)propan-1-ol] gave an inhibition in vivo at 1 mg/kg of 101.6 ± 0.49%. NCCC(O)c1cccc(NCC2CCCC2)c1 (stereo not drawn) [Example 39, 3-Amino-1-(3-(cyclopentylmethylamino)phenyl)propan-1-ol] showed an inhibition in vivo at 1 mg/kg of 69.9 ± 6.85%. Work on NCCC(=O)c1cccc(NCC2CCCC2)c1 [Example 40, 3-Amino-1-(3-(cyclopentylmethylamino)phenyl)propan-1-one] yielded an inhibition in vivo at 1 mg/kg of 1.24 ± 9.74%. NCCC(O)c1cccc(NCCCCCOCc2ccccc2)c1 (stereo not drawn) [Example 41, 3-Amino-1-(3-(5-(benzyloxy)pentylamino)phenyl)propan-1-ol] gave an inhibition in vivo at 1 mg/kg of -0.34 ± 6.12%. COc1ccccc1CNc1cccc(C(O)CCN)c1 (stereo not drawn) [Example 47, 3-Amino-1-(3-((2-methoxybenzyl)amino)phenyl)propan-1-ol] showed an inhibition in vivo at 1 mg/kg of 4.08 ± 4.84%. In the case of COc1ccccc1CNc1cccc(C(=O)CCN)c1 [Example 48, 3-Amino-1-(3-(2-methoxybenzylamino)phenyl)propan-1-one], the inhibition in vivo at 1 mg/kg is reported as 0.21 ± 8.88%. For NCCC(O)c1cccc(NCCc2ccccc2)c1 (stereo not drawn) [Example 49, 3-Amino-1-(3-(phenethylamino)phenyl)propan-1-ol], the inhibition in vivo at 1 mg/kg was 4.54%. [2H]C([2H])(CN)C(O)c1cccc(NC(=O)C2CCCCC2)c1 (stereo not drawn) [Example 57, N-(3-(3-amino-2,2-dideutero-1-hydroxypropyl)phenyl)cyclohexanecarboxamide] was tested, and the inhibition in vivo at 1 mg/kg was 2.01 ± 1.3%. Work on [2H]C([2H])(CN)C(O)c1cccc(NS(=O)(=O)C2CCCCC2)c1 (stereo not drawn) [Example 58, N-(3-(3-amino-2,2-dideutero-1-hydroxypropyl)phenyl)cyclohexanesulfonamide] yielded an inhibition in vivo at 1 mg/kg of 6.94 ± 5.15%. NCCC(O)c1cccc(NCCCc2ccccc2)c1 (stereo not drawn) [Example 59, 3-Amino-1-(3-(3-phenylpropylamino)phenyl)propan-1-ol] was tested, and the inhibition in vivo at 1 mg/kg was 4.24 ± 13%. For NCCC(=O)c1cccc(NCCCc2ccccc2)c1 [Example 60, 3-Amino-1-(3-(3-phenylpropylamino)phenyl)propan-1-one], the inhibition in vivo at 1 mg/kg was -1.33 ± 5.2%. For NCCCc1cccc(NCCCc2ccccc2)c1 [Example 64, 3-(3-Aminopropyl)-N-(3-phenylpropyl)aniline], the inhibition in vivo at 1 mg/kg was 3.83%. CCCC(CCC)C(=O)Nc1cccc(C(O)CCN)c1 (stereo not drawn) [Example 73, N-(3-(3-Amino-1-hydroxypropyl)phenyl)-2-propylpentanamide] showed an inhibition in vivo at 1 mg/kg of -1.24 ± 4.43%. With [2H]C(O)(CCN)c1cccc(NCC2CCCCC2)c1 (stereo not drawn) [Example 81, 3-Amino-1-(3-(cyclohexylmethylamino)phenyl)-1-deuteropropan-1-ol] the inhibition in vivo at 1 mg/kg was 85 ± 3.06%. [2H]C([2H])(CN)C(O)c1cccc(NCC2CCCCC2)c1 (stereo not drawn) [Example 82, 3-Amino-1-(3-(cyclohexylmethylamino)phenyl)-2,2-dideuteropropan-1-ol] gave an inhibition in vivo at 1 mg/kg of 75.1 ± 8.03%. [2H]C([2H])(N)CC(O)c1cccc(NCC2CCCCC2)c1 (stereo not drawn) [Example 83, 3-Amino-1-(3-(cyclohexylmethylamino)phenyl)-3,3-dideuteropropan-1-ol] was tested, and the inhibition in vivo at 1 mg/kg was 89.5 ± 2.09%. Compound CN(CC1CCCCC1)c1cccc(C(O)CCN)c1 (stereo not drawn) [Example 90, 3-Amino-1-(3-((cyclohexylmethyl)(methyl)amino)phenyl)propan-1-ol] has an inhibition in vivo at 1 mg/kg of 3.17 ± 4.97%. For [2H]C1(CNc2cccc(C(O)CCN)c2)CCCCC1 (stereo not drawn) [Example 91, 3-Amino-1-(3-((1-deuterocyclohexyl)methylamino)phenyl)propan-1-ol], the inhibition in vivo at 1 mg/kg was 95.5 ± 1.07%. Work on [2H]C1([2H])C([2H])([2H])C([2H])([2H])C([2H])(C(=O)Nc2cccc(C(O)CCN)c2)C([2H])([2H])C1([2H])[2H] (stereo not drawn) [Example 93, N-(3-(3-Amino-1-hydroxypropyl)phenyl)-1,2,2,3,3,4,4,5,5,6,6-undecadeuterocyclohexanecarboxamide] yielded an inhibition in vivo at 1 mg/kg of -0.53 ± 4.53%. NCCCc1cccc(NS(=O)(=O)c2ccccc2)c1 [Example 99, N-(3-(3-Aminopropyl)phenyl)benzenesulfonamide] gave an inhibition in vivo at 1 mg/kg of -3.83 ± 5.52%. Work on NCCC(O)c1cccc(NS(=O)(=O)c2ccccc2)c1 (stereo not drawn) [Example 101, N-(3-(3-Amino-1-hydroxypropyl)phenyl)benzenesulfonamide] yielded an inhibition in vivo at 1 mg/kg of 1.82 ± 10.5%. NCCC(=O)c1cccc(NS(=O)(=O)c2ccccc2)c1 [Example 103, N-(3-(3-Aminopropanoyl)phenyl)benzenesulfonamide] gave an inhibition in vivo at 1 mg/kg of -2.77 ± 6.53%. [2H]/C(=C(/[2H])C(O)(CCC)CCC)c1cccc(C(O)CCN)c1 (stereo not drawn) [Example 117, (E)-4-(2-(3-(3-Amino-1-hydroxypropyl)phenyl)-1,2-dideuterovinyl)heptan-4-ol] gave an inhibition in vivo at 1 mg/kg of 97.9 ± 1.5%. Compound [2H]C([2H])(N)CC(O)c1cccc(C#CC2(O)CCCCC2)c1 (stereo not drawn) [Example 121, 1-((3-(3-amino-3,3-dideutero-1-hydroxypropyl)phenyl)ethynyl)cyclohexanol] has an inhibition in vivo at 1 mg/kg of 27.5 ± 9.6%. For [2H]C([2H])(CN)C(O)c1cccc(C#CC2CCCCC2)c1 (stereo not drawn) [Example 122, 3-amino-1-(3-(cyclohexylethynyl)phenyl)-2,2-dideuteropropan-1-ol], the inhibition in vivo at 1 mg/kg was 84.9 ± 4.5%. Work on [2H]C([2H])(N)CC(O)c1cccc(C#CC2CCCCC2)c1 (stereo not drawn) [Example 123, 3-amino-1-(3-(cyclohexylethynyl)phenyl)-3,3-dideuteropropan-1-ol] yielded an inhibition in vivo at 1 mg/kg of 91.4 ± 2.5%.
